Laboratory results taken from patent publication US4514573A, “Isoprenylamine derivatives” (priority 1981, dated 1985).

Legend:
[1] = tested on: vaccinia virus; format: cell-based; conditions: 50 n molar concentration, Vero cells, in vitro
[2] = tested on: tumor cells KN7 -8; assay: Anti-tumor activity in mice inoculated with tumor cells; format: in vivo, Balb/c male mice; conditions: 30 mg/kg intraperitoneally, 24 hours before inoculation and on second and fifth day after; 6 mice per group
From the text: Groups, each consisting of 6 Balb/c male mice weighing about 20 g, were intraperitoneally administered 5×10^5 of tumor cells KN7 -8.

Row | SMILES | Anti-vaccinia virus activity Plaque inhibition rate % [1] [%] | Anti-tumor activity (Survivor on the 30th day) [2]
1 | CC(C)=CCCC(C)=CCCC(C)=CCCC(C)=CCCC(C)=CCCC(C)=CCCC(C)=CCCC(C)=CCCC(C)=CCNCc1ccc(C)cc1C | 9.8 | –
2 | COc1ccc(CNCC=C(C)CCCC(C)CCCC(C)CCCC(C)C)cc1OC (stereo not drawn) [drawing 90] | 22.0 | –
3 | CC(C)=CCCC(C)=CCCC(C)=CCCC(C)=CCCC(C)=CCCC(C)=CCCC(C)=CCCC(C)=CCCC(C)=CCCC(C)=CCNCc1cccc(CN)c1 [drawing 58] | – | 1/6
